Data taken from patent publication US20180055844A1 (Celgene Corporation, priority 2011, published 2018).
pIC50: −log10 of the molar value.

Columns and labels:
HUVEC = HUVEC proliferation; format: cell-based, human
SF-539 = test: Invasion of solid tumor cells; format: cell-based; details: Homo sapiens; SF-539 (PDGF), glioblastoma
SF-295 = test: Invasion of solid tumor cells; format: cell-based; details: Homo sapiens; SF-295 (PDGF), glioblastoma
HEP-G2 = test: Solid tumor cell colony formation; format: cell-based; details: Homo sapiens, HepG2
U87 = test: Solid tumor cell colony formation; format: cell-based; details: Homo sapiens, U-87 MG
MCF-7 = test: Solid tumor cell colony formation; format: cell-based; details: Homo sapiens, MCF7
ZR-75-1 = test: Solid tumor cell colony formation; format: cell-based; details: Homo sapiens

For `Cc1nc2cccc(N)c2c(=O)n1C1CCC(=O)NC1=O` (centres unmarked) [compound of Formula I, 3-(5-amino-2-methyl-4-oxo-4H-quinazolin-3-yl)-piperidine-2,6-dione], the HUVEC proliferation (HUVEC) was “did not inhibit”, the “growth factor-induced HUVEC proliferation” value (HUVEC; growth factor-induced) was “either enhanced or did not inhibit” and the pIC50 (SF-539) was 7.60. For the same molecule, the pIC50 (SF-295) was 6.62, the inhibition at 10 µM (HEP-G2) was 6.9% and the inhibition at 10 µM (U87) was 2%. It also gave an inhibition at 10 µM (MCF-7) of 1.4% and an inhibition at 10 µM (ZR-75-1) of 90%.
